Laboratory results published in US9884851B2, “Heterocycle-bisamide inhibitors of scavenger receptor BI” (THE BROAD INSTITUTE, INC., priority 2012, dated 2018).
Values after ≈ are worked out from the molar mass of the structure shown. Read-outs that look alike come from different tables or passages of the source. Each block holds one compound with its values, some of them ahead of it.

Legend:
[1] = biological target: T1, murine SR-BI, isoform 1 (Mus musculus, UniProt Q61009); assay: DiI-HDL uptake assay (primary assay); assay type: cell-based; details: ldlA[mSR-BI] cells, 3 hours with compound
T1 construct: expressed in transfected cells; host or cells: ldlA[mSR-BI], Chinese hamster ovary (CHO) cells lacking LDL receptor (Krieger Laboratory)
T1 sequence (Q61009 1-509): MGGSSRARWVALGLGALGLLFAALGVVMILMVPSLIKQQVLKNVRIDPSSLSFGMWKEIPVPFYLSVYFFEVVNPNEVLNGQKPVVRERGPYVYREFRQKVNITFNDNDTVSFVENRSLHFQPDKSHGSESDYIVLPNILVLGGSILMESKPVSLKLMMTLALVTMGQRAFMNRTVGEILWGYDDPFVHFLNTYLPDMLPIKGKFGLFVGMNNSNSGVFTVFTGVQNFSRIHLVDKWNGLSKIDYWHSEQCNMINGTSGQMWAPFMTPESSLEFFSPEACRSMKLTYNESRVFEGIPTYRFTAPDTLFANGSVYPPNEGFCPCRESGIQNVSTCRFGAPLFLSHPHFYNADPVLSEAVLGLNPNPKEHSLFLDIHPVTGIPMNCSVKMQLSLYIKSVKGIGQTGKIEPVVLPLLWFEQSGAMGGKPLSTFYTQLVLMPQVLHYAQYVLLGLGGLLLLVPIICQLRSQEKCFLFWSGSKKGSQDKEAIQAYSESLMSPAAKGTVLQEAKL
Description: The following cell lines were used in this study: • ldlA[mSR-BI] is a Chinese hamster ovary (CHO) cell line that overexpresses murine SR-BI, isoform 1 (NP_058021) and was obtained from the (Krieger Laboratory). This cell line was used for the primary assay and several secondary assays. […] Assays DiI-HDL Uptake Assay (Primary Assay AID Nos. 488896, 493194, 540354 588392, 588553, 588548, 588754, 588828, 588833)
ldlA[mSR-BI] cells were plated into 384-well plates at 30 μl per well and incubated overnight. As a measurable surrogate for cholesterol uptake, human HDL particles were treated with the lipophilic fluorescent dye DiI and exposed to ldlA[mSR-BI] cells in lipoprotein-free media (Ham's F12/0.5% fatty acid-free Bovine Serum Albumin (BSA)/25 mM HEPES pH 7.4 plus 10 μg protein/ml DiI-HDL). Cells took up the DiI via SR-BI over 3 hours in the presence of compound. After significant uptake of the DiI, the cells became fluorescent. The level of fluorescence correlates with the amount of DiI uptake and can be measured with a standard plate reader (here a PerkinElmer EnVision plate reader was used). The uptake of lipid (represented by DiI) was inhibited by the positive control compound BLT-1 or with an excess of HDL untreated with DiI. Primary HTS data were analyzed in Genedata Screener Assay Analyzer, and were normalized against DMSO and the positive control (1 μM BLT-1). For the HTS, the average of two replicates was used to rank order activity and to choose compounds for retests. For dose studies, percent (%) activity was determined for each concentration and the concentration response curves (CRCs) were generated with Genedata Condeseo.
To identify novel inhibitors, SR-BI-mediated lipid uptake was measured in an engineered cell line that minimized potential uptake by other mechanisms, including via the LDL receptor (1). ldlA[mSR-BI] cells overexpress murine isoform 1 and selectively take up HDL lipid at similar levels as “has been reported for cultured mouse adrenal cells, perfused organs, and liver, adrenal gland and ovary in vivo” (1). This primary cell-based assay was used in a pilot screen that identified BLTs 1 through 5. The assay was slightly modified from the original protocol of Nieland et al. to increase throughput and to ease automation procedures.
Briefly, the plate reader was switched to a Perkin-Elmer EnVision, several washing steps were eliminated, and the cell number per well was reduced without impacting the robustness of the assay. The automated assay was first tested with a validation set of 2,240 compounds. These compounds were tested in duplicate with in-plate neutral (DMSO) and positive (1 μM BLT-1) controls. Robustness, reproducibility, and variability parameters were analyzed before initiating the full HTS. The HTS was run over the course of several weeks. Data were normalized relative to controls, and plate patterns were corrected using a multiplicative algorithm in Genedata Screener Assay Analyzer. For each compound, the average of the two replicates was determined and used for subsequent analysis.

[2] = test system: hepatitis C virus (HCV); assay: In vitro testing with Huh-7.5 cells infected with HCV; assay type: cell-based; details: for inhibition of HCV replication (in words): Huh-7.5 cells infected with Jcl 378-1 TagRFP (MOI=0.1), 3 dpi
Description: A series of tests were conducted using the compound of Formula II (CID53393835/ML279), other known inhibitors of SR-BI and controls with cells infected with hepatitis C virus (HCV). The cells (Huh-7.5 cells infected with Jcl 378-1 TagRFP (MOI=0.1) 3 dpi) were treated with the following SR-BI compounds and controls:
Three different infection protocols were followed: (1) no wash—virus inoculum was removed 4hpi and fresh medium containing compounds added without washing cells; (2) 5× wash—virus inoculum was removed 4hpi, cells were washed 5× with PBS and fresh medium containing compounds added; and (3) no wash Opt—infection were performed in serum-free OptiMem; virus inoculum was removed 4hpi and fresh medium containing compounds added without washing cells. FIG. 90 provides a comparison of the three different infection set-ups. FIG. 91 provides a comparison of two independent experiments.

[3] = test system: HCVcc and HCVpp; details: primary human hepatocytes and/or human hepatoma cell lines; cited from earlier work
[4] = mice; cited from earlier work
[5] = hamsters; cited from earlier work
[6] = biological target: T2, SR-BI (Mus musculus, UniProt Q61009); details: cited from earlier work
T2 sequence (Q61009 1-509): T1 sequence (Q61009 1-509)

[7] = test system: ldlA[mSR-BI] cells; assay: Cell cytotoxicity assay (CellTiter-Glo)
Description: It is possible that a compound will cause cells to decrease HDL-mediated DiI uptake due to nonspecific consequences of cellular toxicity, representing a second class of false positive hits. The cells were treated with compounds for 3 hours or 24 hours, and then cell viability was measured using the CellTiter-Glo Assay (Promega), a luciferase-based reagent that measures cellular ATP levels. The compounds were tested at different concentrations to determine IC50 values. […] Data were normalized against DMSO and the positive control (1 μM BLT-1) in Genedata Assay Analyzer.
All available dry powder samples of the remaining, non-quenching compounds were procured from commercial sources and purities were determined. The compounds obtained were then retested in the primary assay and in cytotoxicity assays. We wanted to rule out any compounds that were cytotoxic, especially in the 3-hour time span of the primary DiI-HDL uptake assay. Therefore, compounds were tested in ldl[mSR-BI] cells for cytotoxicity at 3 hours and 24 hours using the CellTiter-Glo assay (Promega) that measures cellular ATP as a marker of cell viability. […] Compounds were screened for inhibition of endocytosis using labeled transferrin, which is known to bind the transferrin receptor, enter cells by clathrin-mediated endocytosis, and move to endosomes before being recycled to the cell surface.

[8] = test system: endocytosis of transferrin; assay: Transferrin endocytosis assay; assay type: cell-based, Chinese hamster; details: concentrations up to 35 μM
From the text: Transferrin Endocytosis Assay (SA 3: AID No. 602134)
This assay measures the endocytosis of an independent ligand, transferrin, which is not taken up via SR-BI but by clathrin-mediated endocytosis; thus providing a measure of the selectivity of the inhibitors. Alexa-594-labeled transferrin is taken into the cell via endocytosis and localization of labeled transferrin can be quantitated in the various intracellular compartments. […] Inhibitors of interest should act selectively at SR-BI and should have no activity in this assay.
Cells were pre-treated with compound for 3 hours and then treated with the Alexa-594 transferrin reagent for 30 minutes (Catalog No. T-13343; Invitrogen) in serum-free media. Plates of cells were then placed onto ice, washed with ice cold PBS, and then fixed with 4% paraformaldehyde. In addition, the nuclei were stained with 300 nM 4′,6-diamidino-2-phenylindole (DAPI) (Catalog No. 21490; Invitrogen). The cells were imaged with the Molecular Devices IXM microscope. Translocation measurements were performed using MetaExpress software and normalized for cell number.

[9] = Solubility in PBS; assay type: physicochemical; details: PBS pH 7.4, 23° C., 1% DMSO
Description: We noticed that the concentration of the probe fluctuated through the course of the assay (data not shown). We believe that this fluctuation is due to the low kinetic solubility of the probe. Thus, we decided to determine the amount of undissolved probe present in the well after it was treated with PBS for a given length of time, relative to the amount of undissolved probe at the start of the assay. The wells were centrifuged and the supernatant was removed after various time points, then acetonitrile was added to dissolve the remaining solid in the wells, and the amount of probe was quantified. […] The stability of the probe was confirmed by measuring stability in human plasma, with >99% remaining after a 5-hour incubation period. […] FIG. 5 summarizes known properties of the probe.

[10] = biological target: T2, SR-BI; assay: HDL binding assay (Alexa 488 HDL); assay type: cell-based, murine; set-up: expressed in transfected cells; host or cells: ldlA[mSR-BI], Chinese hamster ovary (CHO) cells lacking LDL receptor (Krieger Laboratory); details: Alexa Fluor 488-labeled HDL
Description: HDL binding was assessed using Alexa Fluor 488-labeled HDL particles. For this assay, the Alexa 488 dye was directly covalently bound to apolipoprotein components of the HDL particle via primary amines; thus, no transfer of the fluorophore to cell membranes occurs. Instead, direct binding of the HDL particles to SR-BI can be measured. As a positive control, BLT-1, which is known to increase binding, was used at 1 μM. It is possible that a compound can reduce binding of HDL to the receptor, and this would lead to a decrease in signal. This assay is used to characterize the mechanism of action of a particular compound; therefore, any outcome in the assay is acceptable. Data were normalized against DMSO and the positive control (1 μM BLT-1) in Genedata Assay Analyzer.

SMILES: COc1c(NC(=O)C(=O)c2ccc(OCCN3CCOCC3)c3ccccc23)cc(C(C)(C)C)cc1NS(C)(=O)=O [ITX-5061]
IC50 [1]: 254 nM
inhibition of HCV replication (in words) ([2]; listed as 9): able to inhibit HCV replication
inhibition of HCV replication (in words) ([2]; listed as SRB1-9): inhibited viral replication
mean fluorescence intensity (MFI) of HCV positive cells (in words) ([2]; dose dependence): this increase was not seen
HCVcc and HCVpp infection (in words) [3]: inhibit HCVcc and HCVpp infection

SMILES: CC(C)(C)OC(=O)N1CCN(c2ccc(NC(=O)c3cc([N+](=O)[O-])ccc3Cl)cc2)CC1 [R-138329]
HDL-cholesterol (in words) [4]: increased HDL-cholesterol
HDL-cholesterol (in words) [5]: increased HDL-cholesterol

SMILES: COc1ccc(Cl)cc1C(=O)NCCc1ccc(S(=O)(=O)NC(=O)NC2CCCCC2)cc1 [glyburide]
cholesterol efflux inhibition (in words) [6]: relatively weak inhibitor of cholesterol efflux

SMILES: COc1ccc(-c2nnn(CC(=O)N(C3CCCCC3)C(C)C(=O)NC3CCCC3)n2)cc1OC (centres unmarked) [MLS000888573, reference compound]
IC50 [1]: 51 nM
IC50 ([1]; listed as hit compound): 58 nM
IC50 ([7]; read-out: 3 h CellTiter-Glo IC50, 3 hours treatment): > 35000 nM
IC50 ([7]; read-out: 24 h CellTiter-Glo cytotoxicity IC50, 24 hours treatment): > 35000 nM
endocytosis of transferrin (in words) [8]: not grossly perturbing cellular membrane trafficking pathways
solubility [9]: 114 µM (≈ 55.2 µg/mL)
AC50 [10]: 600 nM

IC50 [1]: 1600 nM
SMILES: C[C@@H](C(=O)NC1CCCC1)N(C(=O)Cn1nnc(-c2ccc3c(c2)OCO3)n1)C1CCCCC1 [(S)-isomer]

IC50 [1]: 0.93 nM
SMILES: COCC(=O)N1CCc2cc(-c3csc(NC(=O)c4cc(OC)cc(OC)c4)n3)ccc21 [ML278, reference compound]
